# Measured values from ChEMBL document CHEMBL4311992, “Discovery of 3-(((9H-purin-6-yl)amino)methyl)-4,6-dimethylpyridin-2(1H)-one derivatives as novel tubulin polymerization inhibitors for treatment of cancer” (Eur J Med Chem, 2019).
# Experiments:
# [1] = target: Protein kinase C gamma type (Homo sapiens) (UniProt P05129); test: Inhibition of recombinant full-length human PKCgamma assessed as residual activity at 10 uM using histone H1 as substrate measured after 40 mins in presence of [gamma33P]ATP by scintillation counting method
# [2] = test system: Dual specificity protein kinase TTK (Homo sapiens), P33981 [S389A]; test: Inhibition of recombinant full-length human TTK S389A mutant assessed as residual activity at 10 uM using MBP as substrate measured after 40 mins in presence of [gamma33P]ATP by scintillation counting method
# Sequence of Dual specificity protein kinase TTK (Homo sapiens), P33981 [S389A] (P33981 whole entry S389A): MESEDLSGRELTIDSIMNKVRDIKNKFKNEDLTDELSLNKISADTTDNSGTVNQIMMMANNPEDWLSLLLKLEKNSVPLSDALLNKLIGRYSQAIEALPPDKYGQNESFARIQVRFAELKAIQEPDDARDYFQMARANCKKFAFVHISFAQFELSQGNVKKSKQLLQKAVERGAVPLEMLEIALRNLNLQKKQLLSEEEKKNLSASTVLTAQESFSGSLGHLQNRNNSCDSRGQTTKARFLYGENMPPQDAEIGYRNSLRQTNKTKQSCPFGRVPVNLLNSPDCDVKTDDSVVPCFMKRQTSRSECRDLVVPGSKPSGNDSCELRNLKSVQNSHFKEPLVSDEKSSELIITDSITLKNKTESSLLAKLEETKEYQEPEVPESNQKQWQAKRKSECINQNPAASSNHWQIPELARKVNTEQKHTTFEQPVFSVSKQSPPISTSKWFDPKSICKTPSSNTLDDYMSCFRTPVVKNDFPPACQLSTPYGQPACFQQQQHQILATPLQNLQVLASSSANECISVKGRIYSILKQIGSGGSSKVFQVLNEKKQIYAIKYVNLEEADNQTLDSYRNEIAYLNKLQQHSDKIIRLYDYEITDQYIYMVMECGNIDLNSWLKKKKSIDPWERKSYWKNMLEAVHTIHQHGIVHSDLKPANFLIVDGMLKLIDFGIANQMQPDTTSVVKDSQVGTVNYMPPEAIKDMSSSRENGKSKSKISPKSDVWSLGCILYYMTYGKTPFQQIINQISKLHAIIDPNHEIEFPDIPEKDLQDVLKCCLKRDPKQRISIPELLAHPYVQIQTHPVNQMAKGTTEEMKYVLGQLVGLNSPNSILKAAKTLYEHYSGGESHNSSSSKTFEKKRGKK
# [3] = target: Cyclin-dependent kinase-like 4 (Homo sapiens) (UniProt Q5MAI5); test: Inhibition of human CDKL4 assessed as residual activity at 10 uM by radiometric method
# Sequence of Cyclin-dependent kinase-like 4 (Homo sapiens) (Q5MAI5 whole entry, the tested form may be a part): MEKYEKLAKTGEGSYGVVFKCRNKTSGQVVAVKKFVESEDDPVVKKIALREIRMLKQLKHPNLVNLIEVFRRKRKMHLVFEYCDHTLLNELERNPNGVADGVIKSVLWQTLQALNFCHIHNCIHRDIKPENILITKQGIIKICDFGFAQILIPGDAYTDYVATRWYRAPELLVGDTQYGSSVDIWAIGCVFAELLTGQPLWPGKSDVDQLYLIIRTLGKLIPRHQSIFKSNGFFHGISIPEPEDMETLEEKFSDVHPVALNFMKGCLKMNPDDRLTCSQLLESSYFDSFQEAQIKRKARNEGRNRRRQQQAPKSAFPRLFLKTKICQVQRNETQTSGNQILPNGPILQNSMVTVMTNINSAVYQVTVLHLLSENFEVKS
# [4] = species: Homo sapiens; test: Inhibition of recombinant human Plk4 S34T mutant (1 to 273 residues) assessed as residual activity at 10 uM using casein as substrate measured after 40 mins in presence of [gamma33P]ATP by scintillation counting method
# [5] = test system: PI3-kinase p110-alpha/p85-alpha (Homo sapiens), P27986+P42336 [E542K]; test: Inhibition of recombinant full-length human PI3K p110alpha/p85alpha E542K mutant assessed as residual activity at 10 uM using phosphatidylinositol-4, 5-bisphosphate as substrate measured after 40 mins by fluorescence assay; assay type: protein-complex assay
# [6] = target: Rhodopsin kinase GRK7 (Homo sapiens) (UniProt Q8WTQ7); test: Inhibition of recombinant full-length human GRK7 assessed as residual activity at 10 uM using casein as substrate measured after 40 mins in presence of [gamma33P]ATP by scintillation counting method
# [7] = target: CDK12/Cyclin K (Homo sapiens) (UniProt O75909+Q9NYV4); test: Inhibition of recombinant full length human CDK12/cyclinK assessed as residual activity at 10 uM using RSRSRSRSRSRSRSR as substrate measured after 120 mins in presence of [gamma33P]ATP by scintillation counting method; assay type: protein-complex assay
# [8] = species: Mus musculus; test: Inhibition of recombinant mouse ABL L782P/G784R/W785L/L786V mutant (27 to end residues) assessed as residual activity at 10 uM using EAIYAAPFAKKK as substrate measured after 40 mins in presence of [gamma33P]ATP by scintillation counting method
# [9] = target: Mitogen-activated protein kinase 11 (Homo sapiens) (UniProt Q15759); test: Inhibition of recombinant full-length human SAPK2b assessed as residual activity at 10 uM using myelin basic protein as substrate measured after 40 mins in presence of [gamma33P]ATP by scintillation counting method
# [10] = target: PAS domain-containing serine/threonine-protein kinase (Homo sapiens) (UniProt Q96RG2); test: Inhibition of recombinant human PASK (995 to end residues) assessed as residual activity at 10 uM using KKLNRTLSFAEPG as substrate measured after 40 mins in presence of [gamma33P]ATP by scintillation counting method
# Sequence of PAS domain-containing serine/threonine-protein kinase (Homo sapiens) (Q96RG2 whole entry, the tested form may be a part): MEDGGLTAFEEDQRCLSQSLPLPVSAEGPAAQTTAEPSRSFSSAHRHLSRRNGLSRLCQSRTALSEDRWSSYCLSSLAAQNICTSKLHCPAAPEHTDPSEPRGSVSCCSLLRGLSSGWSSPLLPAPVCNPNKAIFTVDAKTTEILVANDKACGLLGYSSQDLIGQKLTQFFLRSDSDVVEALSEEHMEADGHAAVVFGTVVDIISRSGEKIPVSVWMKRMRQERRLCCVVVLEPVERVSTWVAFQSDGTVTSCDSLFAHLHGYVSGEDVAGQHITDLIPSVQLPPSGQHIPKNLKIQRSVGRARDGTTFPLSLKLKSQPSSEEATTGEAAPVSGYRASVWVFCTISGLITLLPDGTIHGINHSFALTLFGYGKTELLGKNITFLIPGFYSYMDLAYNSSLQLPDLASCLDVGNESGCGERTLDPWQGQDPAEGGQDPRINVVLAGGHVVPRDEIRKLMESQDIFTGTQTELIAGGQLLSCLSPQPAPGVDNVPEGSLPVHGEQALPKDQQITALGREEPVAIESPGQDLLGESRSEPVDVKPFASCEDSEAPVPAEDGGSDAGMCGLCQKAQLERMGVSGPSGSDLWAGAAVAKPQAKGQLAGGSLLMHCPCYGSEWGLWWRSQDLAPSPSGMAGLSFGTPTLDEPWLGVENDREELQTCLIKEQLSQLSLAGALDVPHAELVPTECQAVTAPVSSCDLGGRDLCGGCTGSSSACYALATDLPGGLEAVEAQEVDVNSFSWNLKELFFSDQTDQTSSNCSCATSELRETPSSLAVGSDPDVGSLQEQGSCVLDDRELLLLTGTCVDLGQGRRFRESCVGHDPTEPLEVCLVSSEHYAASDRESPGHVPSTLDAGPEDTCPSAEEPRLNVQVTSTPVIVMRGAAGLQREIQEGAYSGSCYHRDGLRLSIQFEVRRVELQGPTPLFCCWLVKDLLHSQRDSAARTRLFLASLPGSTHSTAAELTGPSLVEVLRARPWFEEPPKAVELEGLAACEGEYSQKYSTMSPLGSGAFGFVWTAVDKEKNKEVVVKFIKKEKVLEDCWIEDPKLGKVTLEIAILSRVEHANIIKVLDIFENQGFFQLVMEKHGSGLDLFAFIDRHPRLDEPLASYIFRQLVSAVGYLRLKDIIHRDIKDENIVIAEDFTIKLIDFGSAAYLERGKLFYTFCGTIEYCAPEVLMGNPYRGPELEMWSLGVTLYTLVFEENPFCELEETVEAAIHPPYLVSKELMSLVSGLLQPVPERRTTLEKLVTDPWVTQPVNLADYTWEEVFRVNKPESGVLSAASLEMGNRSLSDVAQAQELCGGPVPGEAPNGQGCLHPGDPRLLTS
# [11] = test system: HepG2; test: cells; conditions: Homo sapiens, HepG2, 72 h
# [12] = test system: Serine/threonine-protein kinase D1 (Homo sapiens), Q15139 [UNDEFINED MUTATION]; test: Inhibition of recombinant full-length human PKCmu R135A mutant assessed as residual activity at 10 uM using KKLNRTLSVA as substrate measured after 40 mins in presence of [gamma33P]ATP by scintillation counting method
# Sequence of Serine/threonine-protein kinase D1 (Homo sapiens), Q15139 [UNDEFINED MUTATION] (Q15139 whole entry, looked up, stated change not applied): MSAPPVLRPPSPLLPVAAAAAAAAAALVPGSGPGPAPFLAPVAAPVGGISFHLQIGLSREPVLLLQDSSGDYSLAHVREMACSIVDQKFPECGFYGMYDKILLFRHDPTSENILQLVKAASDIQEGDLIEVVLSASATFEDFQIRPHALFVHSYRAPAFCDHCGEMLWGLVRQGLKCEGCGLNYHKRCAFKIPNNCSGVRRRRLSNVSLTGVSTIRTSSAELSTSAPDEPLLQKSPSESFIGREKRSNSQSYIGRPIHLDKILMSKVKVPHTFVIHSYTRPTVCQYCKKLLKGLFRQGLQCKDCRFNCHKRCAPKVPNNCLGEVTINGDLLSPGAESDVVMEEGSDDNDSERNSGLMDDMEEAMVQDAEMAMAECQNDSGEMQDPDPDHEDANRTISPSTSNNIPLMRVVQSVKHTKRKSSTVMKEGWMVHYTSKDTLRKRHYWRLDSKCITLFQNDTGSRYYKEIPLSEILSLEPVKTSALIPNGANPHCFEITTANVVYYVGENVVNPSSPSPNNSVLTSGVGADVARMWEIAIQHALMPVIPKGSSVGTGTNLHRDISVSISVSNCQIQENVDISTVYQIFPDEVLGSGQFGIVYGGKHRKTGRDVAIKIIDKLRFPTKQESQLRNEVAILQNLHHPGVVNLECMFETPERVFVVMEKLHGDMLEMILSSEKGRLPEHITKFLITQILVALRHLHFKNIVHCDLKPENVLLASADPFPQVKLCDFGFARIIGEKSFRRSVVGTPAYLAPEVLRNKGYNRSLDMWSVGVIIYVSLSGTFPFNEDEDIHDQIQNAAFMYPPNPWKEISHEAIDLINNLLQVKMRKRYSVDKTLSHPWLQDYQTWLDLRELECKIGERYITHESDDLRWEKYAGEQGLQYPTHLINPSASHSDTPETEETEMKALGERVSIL
# [13] = target: Mast/stem cell growth factor receptor Kit (Homo sapiens) (UniProt P10721); test: Inhibition of recombinant human c-Kit (544 to end residues) assessed as residual activity at 10 uM using poly(Glu, Tyr) 4:1 as substrate measured after 40 mins in presence of [gamma33P]ATP by scintillation counting method
# [14] = target: Aurora kinase C (Homo sapiens) (UniProt Q9UQB9); test: Inhibition of recombinant human AURKC (35 to end residues) assessed as residual activity at 10 uM using AKRRRLSSLRA as substrate measured after 40 mins in presence of [gamma33P]ATP by scintillation counting method
# Sequence of Aurora kinase C (Homo sapiens) (Q9UQB9 whole entry): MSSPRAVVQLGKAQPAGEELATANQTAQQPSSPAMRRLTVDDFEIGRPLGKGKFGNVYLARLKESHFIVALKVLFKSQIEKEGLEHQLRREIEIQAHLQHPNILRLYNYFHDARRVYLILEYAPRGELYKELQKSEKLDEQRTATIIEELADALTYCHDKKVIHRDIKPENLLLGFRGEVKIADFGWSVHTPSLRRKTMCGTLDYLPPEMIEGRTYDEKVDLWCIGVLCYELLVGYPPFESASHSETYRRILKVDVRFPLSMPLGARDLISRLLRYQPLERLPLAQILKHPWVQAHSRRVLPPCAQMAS
# [15] = target: Serine/threonine-protein kinase 32A (Homo sapiens) (UniProt Q8WU08); test: Inhibition of recombinant full-length human STK32A assessed as residual activity at 10 uM using casein as substrate measured after 120 mins in presence of [gamma33P]ATP by scintillation counting method
# [16] = test system: HT-29; test: Antiproliferative activity against human HT-29 cells assessed as reduction in cell viability after 72 hrs by MTT assay; assay type: functional, cell-based; conditions: HT-29, 72 h
# [17] = species: Homo sapiens; test: Inhibition of recombinant human MAPKAPK2 A399G mutant (46 to end residues) assessed as residual activity at 10 uM using KKLNRTLSVA as substrate measured after 40 mins in presence of [gamma33P]ATP by scintillation counting method
# [18] = Toxicity in nude BALB/c mouse assessed as change in ALT level at 40 to 80 mg/kg, po once daily for 4 weeks measured post-last dose; assay type: organism-based; conditions: in vivo, 672 h
# [19] = target: Activin receptor type-2A (Homo sapiens) (UniProt P27037); test: Inhibition of recombinant human ACTR2 (162 to end residues) assessed as residual activity at 10 uM using casein as substrate measured after 120 mins in presence of [gamma33P]ATP by scintillation counting method
# [20] = target: Proto-oncogene tyrosine-protein kinase Src (Homo sapiens) (UniProt P12931); test: Inhibition of recombinant full-length human SRC assessed as residual activity at 10 uM using Cdc2 peptide as substrate measured after 40 mins in presence of [gamma33P]ATP by scintillation counting method
# Sequence of Proto-oncogene tyrosine-protein kinase Src (Homo sapiens) (P12931 2-536 limits assumed): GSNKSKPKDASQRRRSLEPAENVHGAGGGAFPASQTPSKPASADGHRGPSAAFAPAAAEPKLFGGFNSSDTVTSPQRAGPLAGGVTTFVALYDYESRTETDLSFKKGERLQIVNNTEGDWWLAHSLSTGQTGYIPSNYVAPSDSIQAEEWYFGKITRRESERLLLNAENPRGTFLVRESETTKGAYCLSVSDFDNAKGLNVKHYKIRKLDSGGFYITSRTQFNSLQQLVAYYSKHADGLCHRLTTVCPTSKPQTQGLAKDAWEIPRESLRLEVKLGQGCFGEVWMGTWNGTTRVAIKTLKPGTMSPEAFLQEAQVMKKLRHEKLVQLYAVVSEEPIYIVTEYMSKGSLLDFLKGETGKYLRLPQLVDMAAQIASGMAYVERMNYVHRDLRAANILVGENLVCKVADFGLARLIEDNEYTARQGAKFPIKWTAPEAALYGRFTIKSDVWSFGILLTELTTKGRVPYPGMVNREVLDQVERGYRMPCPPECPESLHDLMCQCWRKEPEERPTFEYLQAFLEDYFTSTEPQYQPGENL
# [21] = target: Phosphatidylinositol 5-phosphate 4-kinase type-2 alpha (Homo sapiens) (UniProt P48426); test: Inhibition of recombinant full-length human PIP4K2alpha assessed as residual activity at 10 uM using phosphatidylinositol 5-phosphate as substrate measured after 40 mins by HTRF assay
# [22] = target: Tyrosine-protein kinase Yes (Homo sapiens) (UniProt P07947); test: Inhibition of recombinant full-length human Yes assessed as residual activity at 10 uM using poly(Glu, Tyr) 4:1 as substrate measured after 40 mins in presence of [gamma33P]ATP by scintillation counting method
# [23] = target: Leucine-rich repeat serine/threonine-protein kinase 2 (Homo sapiens) (UniProt Q5S007); test: Inhibition of recombinant human LRRK2 (970 to end residues) assessed as residual activity at 10 uM using RLGRDKYKTLRQIRQ as substrate measured after 40 mins in presence of [gamma33P]ATP by scintillation counting method
# [24] = target: Casein kinase I isoform delta (Homo sapiens) (UniProt P48730); test: Inhibition of recombinant human CK1delta (1 to 294 residues) assessed as residual activity at 10 uM using KRRRALS(p)VASLPGL as substrate measured after 40 mins in presence of [gamma33P]ATP by scintillation counting method
# [25] = target: MAP/microtubule affinity-regulating kinase 3 (Homo sapiens) (UniProt P27448); test: Inhibition of recombinant full-length human MARK3 assessed as residual activity at 10 uM using KKKVSRSGLYRSPSMPENLNRPR as substrate measured after 40 mins in presence of [gamma33P]ATP by scintillation counting method
structure (smiles),measurement,setting,value
Cc1cc(C)c(CNc2nc(Cl)nc3c2ncn3C2CCCC2)c(=O)[nH]1,Activity,[1],108%
same,Activity,[2],99.5%
same,Activity,[3],116%
same,Activity,[4],98.5%
same,Activity,[5],97.5%
same,Activity,[6],102%
same,Activity,[7],104%
same,Activity,[8],101%
same,Activity,[9],100%
same,Activity,[10],100%
same,IC50,[11],80 nM
same,Activity,[12],103%
same,Activity,[13],99.5%
same,Activity,[14],106%
same,Activity,[15],100%
same,IC50,[16],71 nM
same,Activity,[17],124%
same,Activity,[18],Non-Toxic
same,Activity,[19],104%
same,Activity,[20],130%
same,Activity,[21],108%
same,Activity,[22],79%
same,Activity,[23],100%
same,Activity,[24],103%
same,Activity,[25],90%
